Assay [1] deals with MM1S cells. Briefly: Subcutaneous xenograft model, in vivo synergy of S09 drug combinations. The arrangement: species or system CB17-SCID immunosuppressed mice. The settings on record: MM1S s.c. xenograft, CB17-SCID mice; for Tumor volume: i.p.: B 0.5, C 50, D 0.5 mg/kg days 1 and 4, S09 4 mg/kg each 12 hours. The protocol: CB17-SCID immunosuppressed mice (female) of 6-7 weeks old housed and handled in a pathogen-free zone. They were purchased from Janvier Labs (France). All experiments were carried out within the facilities of the University of Salamanca (Spain).
Control: Medium (PBS), intraperitoneally (i.p.), each 12 hours on days 1 to 5.
Treatment Groups: • Monotherapy: • Bortezomib 0.5 mg/kg i.p. on days 1 and 4. • Cyclophosphamide 50 mg/kg i.p. on days 1 and 4 • Dexamethasone 0.5 mg/kg i.p. on days 1 and 4 • S09 4 mg/kg i.p. each 12 hours on days 1 to 7 • Double combinations: • Bortezomib 0.5 mg/kg i.p. on days 1 and 4+S09 4 mg/kg i.p. each 12 hours on days 1 to 7 • Cyclophosphamide 50 mg/kg i.p. on days 1 and 4+S09 4 mg/kg i.p. each 12 hours on days 1 to 7 • Dexamethasone 0.5 mg/kg i.p. on days 1 and 4+S09 4 mg/kg i.p. each 12 hours on days 1 to 7 • Bortezomib 0.5 mg/kg i.p. on days 1 and 4+Cyclophosphamide 50 mg/kg i.p. on days 1 and 4 • Cyclophosphamide 50 mg/kg i.p. on days 1 and 4+Dexamethasone 0.5 mg/kg i.p. on days 1 and 4 • Dexamethasone 0.5 mg/kg i.p. on days 1 and 4+Bortezomib 0.5 mg/kg i.p. on days 1 and 4 • Triple combinations: • Bortezomib 0.5 mg/kg i.p. on days 1 and 4+Dexamethasone 0.5 mg/kg i.p. on days 1 and 4+S09 4 mg/kg i.p. each 12 hours on days 1 to 7 • Cyclophosphamide 50 mg/kg i.p. on days 1 and 4+Dexamethasone 0.5 mg/kg i.p. on days 1 and 4+S09 4 mg/kg i.p. each 12 hours on days 1 to 7
Mice were shaved on the right flank and anesthetized by inhalation to decrease their mobility, were inoculated subcutaneously with 3×10^6 MM1S cells in 50 μl of RPMI-1640 medium and 50 μl of Corning @ Matrigel® Basement Membrane Matrix. […] This was estimated by measurements with a caliper of the two tumor diameters and using the following formula of a spheroid: […]
Where a and b correspond to the longest and shortest diameter, respectively. Tumor volume was monitored three times per week.
The treatment endpoint was determined by the value of tumor volume in the mouse (a range of 2000-2200 mm3).

Assay [2] can be described thus: Growth inhibition activity, comparative test of Example 3 (cell lines not given). The assay is classed as cell-based. The settings on record: Example 3, comparison with stapled versions. The text has this: Following the same protocol as the one disclosed in previous sections, the following activity data were obtained: […]
[3] abbreviates: day of treatment 5, relative to day 1.
[4] abbreviates: day of treatment 10, relative to day 1.
[5] abbreviates: day of treatment 15, relative to day 1.
The mark [6] stands for this setting: day of treatment 24, relative to day 1.

As to `O=P1(N(CCCl)CCCl)NCCCO1` (stereo not shown) [C, cyclophosphamide], the “normalized tumor volume percentage (%)” value in assay [1] (day of treatment 1 (= 100)) was 100.00%; in assay [1] (setting [3]) it was 156.92%; in assay [1] (setting [4]), 247.48%; in assay [1] (setting [5]) it was 552.57%; in assay [1] (setting [6]), 1252.21%. Further, the Tumor volume in assay [1] (day of treatment 1) worked out at 120.75 mm^3; in assay [1] (day of treatment 5) it was 189.48 mm^3; in assay [1] (day of treatment 10) it was 298.83 mm^3; in assay [1] (day of treatment 15), 667.23 mm^3; in assay [1] (day of treatment 24) it was 1512.04 mm^3.

For “Pro-Lys-Val-Val-11e-Leu-Lys-Lys-Ala-Thr-Ala-Tyr-Ile (PKVVILKKATAYI; wild type sequence) [SEQ ID NO: 11]”, the growth inhibition activity result in assay [2] is recorded as “does not present growth inhibition activity”.

`CC(C)C[C@H](NC(=O)[C@H](Cc1ccccc1)NC(=O)c1cnccn1)B(O)O` [B, bortezomib]: the “normalized tumor volume percentage (%)” value is given as 100.00% in assay [1] (day of treatment 1 (= 100)); 138.36% in assay [1] (setting [3]); 230.48% in assay [1] (setting [4]); 470.62% in assay [1] (setting [5]); 1410.31% in assay [1] (setting [6]). For the same compound, the Tumor volume was determined as 119.96 mm^3 in assay [1] (day of treatment 1); 165.98 mm^3 in assay [1] (day of treatment 5); 276.48 mm^3 in assay [1] (day of treatment 10); 564.56 mm^3 in assay [1] (day of treatment 15); 1691.81 mm^3 in assay [1] (day of treatment 24).

Consider `C[C@@H]1C[C@H]2[C@@H]3CCC4=CC(=O)C=C[C@]4(C)[C@@]3(F)[C@@H](O)C[C@]2(C)[C@@]1(O)C(=O)CO` [D, dexamethasone], for which the “normalized tumor volume percentage (%)” value turned out to be 100.00% in assay [1] (day of treatment 1 (= 100)); 110.62% in assay [1] (setting [3]); 270.68% in assay [1] (setting [4]); 524.90% in assay [1] (setting [5]); 1206.21% in assay [1] (setting [6]). For the same compound, the Tumor volume was found to be 120.35 mm^3 in assay [1] (day of treatment 1); 133.13 mm^3 in assay [1] (day of treatment 5); 325.76 mm^3 in assay [1] (day of treatment 10); 631.72 mm^3 in assay [1] (day of treatment 15); 1451.67 mm^3 in assay [1] (day of treatment 24).

(Values after patent US20200261534A1, “NEW TREATMENTS OF MULTIPLE MYELOMA” (priority 2017, published 2020).)
